The values that follow come from patent publication US7098012B1, “DNA demethylase, therapeutic and diagnostic uses thereof” (McGill University, priority 1997, dated 2006).

Entries after “also recorded” stand apart in the source; their conditions may differ.

The subject of experiment [1] is DNA dMTase. The experiment is described as follows: Demethylation of [mdC32pdG]n substrate (conversion of mdCMP to dCMP) with additives or pretreatment. It counts as biochemical, human. Particulars: 500 μM, initial rate conditions, FIG. 2a. The procedure: (A) To assay the conversion of methyl-dCMP (mdCMP) to dCMP we used a previously described method (Szyf et al., 1995). Briefly, α^32P labeled, fully methylated poly[mdC^32PdG]n substrate was prepared as follows. One hundred ng of a double-stranded fully methylated (mdCpdG) oligomer (Pharmacia) were denatured by boiling, which was followed by partial annealing at room temperature. The complementary strand was extended with Klenow fragment (Boehringer Mannheim) using methyl-5-dCTP (mdCTP, 0.1 mM) (Boehringer Mannheim) and […] (100 μCi, 3000 Ci/mmol), and the unincorporated nucleotides were removed by chromatography through a NAP-5 column (Pharmacia). The NAP-5 chromatography was repeated to exclude minor contamination with unincorporated nucleotides. As a control a non-methylated poly[dC^32pdG]n substrate was similarly prepared except that a nonmethylated dCpdG oligomer served as a template and dCTP was used in the extension reaction. The column fractions (30 μl), described in the experimental procedures were incubated with 1 ng of poly[mdC^32pdG]n substrate for 1 hour at 37° C. in a buffer L containing 25% glycerol (v/v) and 5 mM EDTA. […] The digestion products were loaded onto a thin layer chromatography plate (TLC) (Kodak, 13255 Cellulose), separated in a medium containing, 132 ml Isobutyric acid:40 ml water:4 ml ammonia solution, autoradiographed and the intensity of the different spots was determined using a phosphorimager (Fuji, BAS 2000). ^32P labeled substrates and tritium labeled substrates were phosphoimaged using BAS 2000 plate and BAS-TR2040 phosphorimager plate respectively. (B) The second method determined removal of methylated residues from methylated DNA by measuring disappearance of ^3H—CH3 or ^14C—CH3 from the reaction mixture. […] The number of methyl groups that were removed from the DNA by the different fractions was determined by subtracting the remaining counts in each of the fractions from the counts remaining in the control. […]

Experiment [2] concerns the target DNA dMTase (Homo sapiens, UniProt Q9UBB5). The experiment is described as follows: Volatilization of radioactive methyl residues assay. It counts as biochemical. The conditions noted are these: imidazole 1 μM to 10 mM; FIG. 16.

DNA dMTase (Homo sapiens, UniProt Q9UBB5), sequence (Q9UBB5 whole entry): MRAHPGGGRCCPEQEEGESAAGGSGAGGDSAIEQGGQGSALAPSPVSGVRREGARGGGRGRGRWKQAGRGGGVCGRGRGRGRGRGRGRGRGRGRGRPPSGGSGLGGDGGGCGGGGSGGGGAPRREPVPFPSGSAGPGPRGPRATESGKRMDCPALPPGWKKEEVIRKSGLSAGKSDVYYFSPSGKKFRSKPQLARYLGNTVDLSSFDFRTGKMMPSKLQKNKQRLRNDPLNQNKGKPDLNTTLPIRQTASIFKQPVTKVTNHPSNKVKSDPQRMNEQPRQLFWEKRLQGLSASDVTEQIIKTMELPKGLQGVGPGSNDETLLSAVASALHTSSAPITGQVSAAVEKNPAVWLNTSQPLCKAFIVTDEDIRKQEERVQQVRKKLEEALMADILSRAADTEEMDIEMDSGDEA

For the molecule `Nc1ccn([C@H]2CC[C@@H](COP(=O)(O)OP(=O)(O)OP(=O)(O)O)O2)c(=O)n1` [ddCTP], the “inhibition of demethylation of the [mdC32pdG]n substrate” value with DNA dMTase [1] was “insensitive; also recorded: does not inhibit”.
Regarding `c1c[nH]cn1` [imidazole], the “inhibition of DNA dMTase activity” value on DNA dMTase [2] is “dose dependent inhibition”.
Regarding `Cc1cn([C@H]2C[C@H](O)[C@@H](COP(=O)(O)OP(=O)(O)OP(=O)(O)O)O2)c(=O)nc1N` [methyl-dCTP, methyl-5-dCTP], the “inhibition of demethylation of the [mdC32pdG]n substrate” value with DNA dMTase [1] is listed as “nor is it inhibited”; in the experiment on DNA dMTase [1] (listed as methyl dCTP), “not affected”.
